Results published in patent publication US20040082510A1, “Pyk2 phosphorylation by her3 induces tumor invasion” (priority 2001, published 2004).

What was measured:
[1] = tested on: SHC tyrosine phosphorylation in SF767 gliomas; assay: SHC tyrosine phosphorylation in SF767 gliomas; assay type: cell-based, human; details: AG825 10 μM 1 hour, 5 μg/ml HRG 20 min
Experimental: (§1) FIG. 5: PYK2 mediates mitogenicity upon HRG stimulation. a, b, SF767 gliomas were pretreated either with 10 μM AG825 for 1 hour or with 100 nM Wortmannin for 30 min (WT), and then stimulated with 5 μg ml^−1 Heregulin for 20 min (HRG). Tyrosine phosphorylation of SHC was elevated by HRG and attenuated by pretreatment with AG825, but not fully abrogated (a). The same holds also for ERK-2 activity, when cells were pretreated either with AG825 or with WT (b). Cell lysates were used for immunoprecipitation with polyclonal anti-SHC (α-SHC) (a), or polyclonal anti-Erk-2 (α-ERK-2) antibodies (b). α-SHC-immunocomplexes were blotted with a monoclonal anti-phosphotyrosine antibody (α-4G10) (a), whereas α-ERK-2 immunocomplexes were subjected to MAP-kinase assays (b). Phosphorylated MBP is indicated by an arrow. c, Tetracyclin-inducible pheochromocytoma PC12 cells, either stably expressing PYK2-KM (Tet−), or only endogenous PYK2 (Tet+), were pretreated either with 100 nm Wortmannin for 30 min (WT), or 10 μM AG825 for 1 hour prior to stimulation with 5 μg ml^−1 Heregulin for 20 min (HRG). Basal ERK-2 activity is independent of HER2 and Pl3-K, whereas the HRG-stimulated ERK-2 activity is dependent on HER2, Pl3-K and PYK2. […]
(§2) Proteins were fractionated by SDS-PAGE and electrophoretically transferred to nitrocellulose filters. […] The substrate reaction was detected on Kodak X-Omat film. […]

[2] = tested on: PYK2 coprecipitating with HER3 in SF767 gliomas; assay: PYK2 coprecipitation with HER3 in SF767 gliomas; assay type: cell-based, human; details: AG825 10 μM 1 hour, with or without HRG
Experimental: SF767 gliomas were pretreated with 5 μM PP1 for 30 minutes and stimulated either with 5 μg ml^−1 Heregulin (HRG, left panel) or 5 μM lonomycin (IONO, right panel) for 20 min and 5 min, respectively. b, PYK2 coprecipitation with HER3 depends on the HER2 kinase activity, and tyrosine phosphorylation of PYK2 is proportional to its binding to HER3. SF767 gliomas were pretreated with 10 μM AG825 for 1 hour and stimulated with 5 μg ml^−1 Heregulin for 20 min (HRG). Cell lysates were subjected to immunoprecipitation (IP) using polyclonal anti-PYK2 (α-PYK2) or monoclonal anti-HER3 (α-HER3) antibodies. Tyrosine phosphorylation level was analysed by western blotting (WB) with monoclonal anti-phosphotyrosine antibody (α-4G10) (a, upper panels, and b, upper panel). Equal loading of proteins was checked by reblotting with α-PYK2 and α-HER3 antibodies, respectively (a, lower panels, and b, middle and lower panels). PYK2 coprecipitating with HER3 was detected by probing the membrane with α-PYK2 antibody (b, middle panel, lanes 1-4). Unstimulated cells are indicated by NS. […]
as §2

[3] = tested on: PYK2 tyrosine phosphorylation in SF767 gliomas; assay: PYK2 tyrosine phosphorylation in SF767 gliomas (immunoprecipitation, anti-phosphotyrosine western blot); assay type: cell-based, human; details: for HRG-induced tyrosine phosphorylation of PYK2: 5 μg/ml HRG 20 min, pretreatment with PP1 5 μM 30 min, AG825 10 μM 1 hour or Wortmannin 100 nM 30 min
Experimental: SF767 gliomas were pretreated with 5 μM PP1 for 30 minutes and stimulated either with 5 μg ml^−1 Heregulin (HRG, left panel) or 5 μM lonomycin (IONO, right panel) for 20 min and 5 min, respectively. b, PYK2 coprecipitation with HER3 depends on the HER2 kinase activity, and tyrosine phosphorylation of PYK2 is proportional to its binding to HER3. SF767 gliomas were pretreated with 10 μM AG825 for 1 hour and stimulated with 5 μg ml^−1 Heregulin for 20 min (HRG). Cell lysates were subjected to immunoprecipitation (IP) using polyclonal anti-PYK2 (α-PYK2) or monoclonal anti-HER3 (α-HER3) antibodies. Tyrosine phosphorylation level was analysed by western blotting (WB) with monoclonal anti-phosphotyrosine antibody (α-4G10) (a, upper panels, and b, upper panel). Equal loading of proteins was checked by reblotting with α-PYK2 and α-HER3 antibodies, respectively (a, lower panels, and b, middle and lower panels). PYK2 coprecipitating with HER3 was detected by probing the membrane with α-PYK2 antibody (b, middle panel, lanes 1-4). Unstimulated cells are indicated by NS.
SF763, SF767 or transfected HEK293 cells were either left untreated or were pretreated with PP1 (10 μM), AG825 (10 μM), Wortmannin (WT) (100 nM) and PD98059 (25 μM) for 30-60 min following stimulation with 5 μg/ml recombinant human HRG for 20 min or with 5 μM IONO for 5 min at 37° C. Upon HRG or IONO stimulation, the cells were lysed on ice in a lysis buffer (50 mM HEPES pH 7.5, containing 150 mM NaCl, 1 mM EDTA, 10% (v/v) glycerol, 1% (v/v) Triton X-100, 1 mM sodium fluoride, 1 mM phenylmethylsulfonyl fluoride, 1 mM sodium orthovanadate, 1 mM β-glycerolphosphate, […] aprotinin). Crude lysates were centrifuged at 12500 g for 20 min at 4° C. For immunoprecipitations, the appropriate antiserum and 30 μl of protein A-Sepharose (Pharmacia) was added to the cleared lysate and incubated for 3 h at 4° C. […]
as §2

[4] = tested on: ERK-2 activity in PC12 cells; assay: MAP-kinase assay on ERK-2 immunocomplexes from tetracyclin-inducible PC12 cells (Tet-off PYK2-KM); assay type: cell-based, rat; details: AG825 10 μM 1 hour, WT 100 nM 30 min or PYK2-KM expression (Tet−); for HRG-stimulated ERK-2 activity: 5 μg/ml HRG 20 min; for Basal ERK-2 activity: unstimulated
[5] = tested on: HER2 tyrosine phosphorylation in PC 12 cells; assay: HER2 tyrosine phosphorylation in PC 12 cells; assay type: cell-based, rat; details: 10 μM AG825, HRG stimulation
Experimental: (§3) FIGS. 13, 14: PC 12 cells were left untreated or pretreated either with 10 μM AG825, 50 μM PD98059 or both and subsequently stimulated with HRG. Immunoprecipitations of HER2 (α-HER2) or of tyrosyl-phosphorylated proteins (α-PY) were probed with phosphotyrosine antibody (α-PY). […] Reprobing of the blot with HER2 antibody confirms equal loading of proteins. SHC is indicated by an arrow.

[6] = tested on: Pl3-K activity in PC12 cells; assay: Pl3-K assay on anti-phosphotyrosine immunoprecipitates from tetracyclin-inducible PC12 cells; assay type: cell-based, rat; details: PC12 Tet-off; 5 μg/ml HRG 20 min; AG825 10 μM 1 hour or PYK2-KM expression (Tet−)
Experimental: FIG. 6: PYK2 enhances Pl3-K activity upon HRG stimulation. a, Tetracyclin-inducible pheochromocytoma […], either stably expressing PYK2-KM (Tet−) or only endogenous PYK2 (Tet+), were pretreated either with 100 nm Wortmannin for 30 min (WT), or 10 μM AG825 for 1 hour prior to stimulation with 5 μg ml^−1 Heregulin for 20 min (HRG). Lysates were subjected to α-4G10 immunoprecipitation and Pl3-K assays were performed (see Methods section). Pl3-K activity is strongly dependent on PYK2 upon HRG stimulation, and is diminished by AG825. MAP-kinase and Pl3-kinase assays were performed as described previously (49, 50).

[7] = tested on: SHC tyrosine phosphorylation in PC 12 cells; assay: SHC tyrosine phosphorylation in PC 12 cells; assay type: cell-based, rat; details: 10 μM AG825, HRG stimulation
Experimental: as §3

[8] = tested on: ERK-2 activity in SF767 gliomas; assay: MAP-kinase assay on ERK-2 immunocomplexes from SF767 gliomas; assay type: cell-based, human; details: AG825 10 μM 1 hour or WT 100 nM 30 min, 5 μg/ml HRG 20 min
Experimental: as §1, with “PYK2. Overexpression of PYK2-KM leads to a general attenuation of ERK-2 activity (compare Tet− with Tet+ bands).” for “PYK2.”

C6 gliomas = assay: Tumor invasion assay, C6 gliomas; assay type: cell-based, rat; details: 5 μg/ml HRG, 16 h, PD98059 25 μM 30 min pretreatment or retroviral PYK2-KM
Experimental: (§4) FIG. 7: PYK2-KM inhibits tumor invasion upon HRG stimulation. a, C6 gliomas were retrovirally infected with either a control vector pLXSN (mock), PYK2, dominant negative PYK2 mutant PYK2-KM, or pretreated with a MEK1 inhibitor PD98059 (25 μM) for 30 min, and tumor invasion assays were performed (see Methods section). b, Invasion is supressed to the same extent by PD98059 and by overexpression of PYK2-KM (p>0.95). c, SF767 gliomas were retrovirally infected with pLXSN or PYK2-KM. d, Tumor invasion is supressed by overexpresssion of PYK2-KM in SF767 (p<0.008), and also in SF763 cell line (p<0.005), as shown by using the same assay. Representative bright-field micrographs of cells that migrated through the 8 μm filters in 16 h are shown. […]
(§5) Amphotrophic virus titer, which was generated by transient transfection of retrovirus expression plasmids into the virus producer cell line PhoenixA (ATCC), was determined by infecting NIH-3T3 cells with serial dilutions of retrovirus-containing, cell-free PhoenixA supernatants and counting the number of G418-resistant colonies. […]
(§6) Tumor invasion assay was performed as describ d previously (31). […] Following 16 h of incubation, non-invading cells were removed with cotton swabs, whereas invading cells were fixed, stained with Crystal violet and counted under bright-field illumination using an Axiovert135 inverted microscope (Zeiss). […]

[9] = tested on: ERK-2 phosphorylation in C6 glioma cells; assay: Phosphorylated ERK-2 in whole cell lysates of C6 glioma cells; assay type: cell-based, rat; details: in parallel to the tumor invasion assay, PD98059 or PYK2-KM
Experimental: (§7) FIGS. 15, 16: Whole cell lysates (WCL) of C6 glioma cells were prepared in parallel to the tumor invasion assay and the content of phosphorylated ERK-2 was assessed by probing with a specific phospho-ERK2 antibody (upper panel). To confirm equal loading of proteins the blot was reprobed with a pan-ERK antibody. (16) The same experimental procedure was used as in (15) for SF767 cells. Phosphorylated ERK-2 is indicated by an arrow. Dominant-negative PYK2-KM abrogates ERK-2 activity to the same extent as MEK-1 inhibitor PD98059.
(§8) Proteins were fractionated by SDS-PAGE and electrophoretically transferred to nitrocellulose filters. For immunoblot analysis, nitrocellulose filters were first incubated with mouse monoclonal or rabbit polyclonal primary antibodies for 3 h at 4° C. Next, a HRP-coupled goat anti-mouse or goat anti-rabbit secondary antibody was added (Biorad), followed by an enhanced chemoluminescence (ECL) substrate reaction (Amersham). The substrate reaction was detected on Kodak X-Omat film. Filters that were used more than once with different antibodies were stripped according to the manufacturer's protocol, blocked and reprobed.

[10] = tested on: ERK-2 phosphorylation in SF767 cells; assay: Phosphorylated ERK-2 in whole cell lysates of SF767 cells; assay type: cell-based, human; details: in parallel to the tumor invasion assay, PD98059 or PYK2-KM
Experimental: as §7, §8

SF767 gliomas = assay: Tumor invasion assay, SF767 gliomas; assay type: cell-based, human; details: HRG, 16 h, retroviral infection with PYK2-KM
Experimental: as §4, §5, §6

SF763 cell line = assay: Tumor invasion assay, SF763 cell line; assay type: cell-based, human; details: HRG, 16 h, retroviral infection with PYK2-KM
Experimental: as §4, §5, §6

Molecule	HRG-stimulated tyrosine-phosphorylation of SHC [1]	Amount of PYK2 that coprecipitates with HER3 [2]	HRG-induced tyrosine phosphorylation of PYK2 [3]	HRG-stimulated ERK-2 activity [4]	Basal ERK-2 activity [4]	Tyrosine phosphorylation of HER2 [5]	Pl3-K activity upon HRG stimulation [6]	Tyrosine phosphorylation of SHC [7]	HRG-stimulated ERK-2 activity [8]	Tumor invasion (invasiveness) (C6 gliomas)	ERK-2 phosphorylation [9]	ERK-2 phosphorylation [10]	Ionomycin-induced tyrosine phosphorylation of PYK2 ([3]; 5 μM IONO 5 min, PP1 5 μM 30 min pretreatment)	Tumor invasion (invasive behaviour) (SF767 gliomas)	Tumor invasion (invasive behaviour) (SF763 cell line)
COc1cc(/C=C(\C#N)C(N)=O)cc(CSc2nc3ccccc3s2)c1O [AG825]	diminished, but not fully abrogated	decreases	attenuated	attenuated	not influenced	completely inhibits	diminished	completely inhibits	diminished, but not fully abrogated						
COc1cccc(-c2cc(=O)c3ccccc3o2)c1N [PD98059]										strongly attenuated	decrease	decrease			
Cc1ccc(-c2nn(C(C)(C)C)c3ncnc(N)c23)cc1 [PP1]			independent of c-src										dependent on c-src activity		
PYK2-KM: dominant negative, kinase-inactive PYK2 mutant K457M, expressed by retroviral infection or Tet-off system				abrogated	abrogated		attenuates			comparable abrogation of the invasive phenotype	decrease	decrease		strong inhibition	strong inhibition
